The test concerns S. aureus. Nature of the test: Minimum inhibitory concentrations (MICs) for S. aureus of exemplary compounds (Table 2). The test is classed as cell-based. The note with it: Staphylococcus aureus, read-out: MICs. In outline: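 MICs (μg/mL) against S. aureus come from microtiter-tray dilution susceptibility testing per NCCLS M7-A5, comparing growth with and without compound.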
Where [1] appears, read: minimum inhibitory concentrations for S. aureus.

≈ marks a conversion by molar mass, not a printed value. Where two headings read alike, the source gives them in different places.

Take `CC(=O)NC[C@H]1CN(c2ccc(-c3ccc(Cn4ccnc4C)cc3)c(F)c2)C(=O)O1` [Compound 1066, N-{3-[2-Fluoro-4′-(2-methyl-imidazol-1-ylmethyl)-biphenyl-4-yl]-2-oxo-oxazolidin-5-(S)-ylmethyl}-acetamide]: the MIC under setting [1] is 1 µg/mL (≈ 2.37 µM).
For `CC(=O)NC[C@H]1CN(c2ccc(-c3ccc(Cn4cncc4C)cc3)c(F)c2)C(=O)O1` [Compound 1067, N-{3-[2-Fluoro-4′-(5-methyl-imidazol-1-ylmethyl)-biphenyl-4-yl]-2-oxo-oxazolidin-5-(S)-ylmethyl}-acetamide], under setting [1], the MIC worked out at 1 µg/mL (≈ 2.37 µM).
On the same count and under the same terms, for `CC(=O)NC[C@H]1CN(c2ccc(-c3ccc(Cn4cc(C)nc4C)cc3)c(F)c2)C(=O)O1` [Compound 1068, N-{3-[4′-(2,4-Dimethyl-imidazol-1-ylmethyl)-2-fluoro-biphenyl-4-yl]-2-oxo-oxazolidin-5-(S)-ylmethyl}-acetamide] the value was 1 µg/mL (≈ 2.29 µM); for `CC(=O)NC[C@H]1CN(c2ccc(-c3ccc(Cn4cnc(N)n4)cc3)c(F)c2)C(=O)O1` [Compound 1069, N-{3-[4′-(3-Amino-[1,2,4]triazol-1-ylmethyl)-2-fluoro-biphenyl-4-yl]-2-oxo-oxazolidin-5-(S)-ylmethyl}-acetamide], 1 µg/mL (≈ 2.36 µM); for `CC(=O)NC[C@H]1CN(c2ccc(-c3ccc(Cn4cccc4)nc3)c(F)c2)C(=O)O1` [Compound 1071, N-{3-[3-Fluoro-4-(6-pyrrol-1-ylmethyl-pyridin-3-yl)-phenyl]-2-oxo-oxazolidin-5-(S)-ylmethyl}-acetamide], 0.25 µg/mL (≈ 0.612 µM).
For the compound `CC(=O)NC[C@H]1CN(c2ccc(-c3ccc(Cn4cncn4)nc3)c(F)c2)C(=O)O1` [Compound 1072, N-{3-[3-Fluoro-4-(6-[1,2,4]triazol-1-ylmethyl-pyridin-3-yl)-phenyl]-2-oxo-oxazolidin-5-(S)-ylmethyl}-acetamide], the MIC under setting [1] was determined as 1 µg/mL (≈ 2.44 µM).
Same read-out and setting: for `CC(=O)NC[C@H]1CN(c2ccc(-c3ccc([C@H](CO)n4ccnn4)cc3)c(F)c2)C(=O)O1` [Compound 1073, N-{3-[2-Fluoro-4′-(2-hydroxy-1-(R)-[1,2,3]triazol-1-yl-ethyl)-biphenyl-4-yl]-2-oxo-oxazolidin-5-(S)-ylmethyl}-acetamide] the value was 1 µg/mL (≈ 2.28 µM).
`CC(=O)NC[C@H]1CN(c2ccc(-c3ccc([C@H](CO)N4CCCC(F)(F)C4)cc3)c(F)c2)C(=O)O1` [Compound 1074, N-(3-{4′-[1-(R)-(3,3-Difluoro-piperidin-1-yl)-2-hydroxy-ethyl]-2-fluoro-biphenyl-4-yl}-2-oxo-oxazolidin-5-(S)-ylmethyl)-acetamide]: the MIC under setting [1] amounted to 4 µg/mL (≈ 8.14 µM).
On the same count and under the same terms, for `CC(=O)NC[C@H]1CN(c2ccc(-c3ccc([C@H](O)CN4CCCC(F)(F)C4)cc3)c(F)c2)C(=O)O1` [Compound 1075, N-(3-{4′-[2-(3,3-Difluoro-piperidin-1-yl)-1-(S)-hydroxy-ethyl]-2-fluoro-biphenyl-4-yl}-2-oxo-oxazolidin-5-(S)-ylmethyl)-acetamide] the value was 2 µg/mL (≈ 4.07 µM); for `CC(=O)NC[C@H]1CN(c2ccc(-c3ccc(Cn4cccn4)nc3)c(F)c2)C(=O)O1` [Compound 1076, N-{3-[3-Fluoro-4-(6-pyrazol-1-ylmethyl-pyridin-3-yl)-phenyl]-2-oxo-oxazolidin-5-(S)-ylmethyl}-acetamide], 1 µg/mL (≈ 2.44 µM); for `CC(=O)NC[C@H]1CN(c2ccc(-c3ccc(Cn4ccnc4)nc3)c(F)c2)C(=O)O1` [Compound 1077, N-{3-[3-Fluoro-4-(6-imidazol-1-ylmethyl-pyridin-3-yl)-phenyl]-2-oxo-oxazolidin-5-(S)-ylmethyl}-acetamide], 4 µg/mL (≈ 9.77 µM).
`CSC1=NCCN1Cc1ccc(-c2ccc(N3C[C@H](CNC(C)=O)OC3=O)cc2F)cc1` [Compound 1078, N-{3-[2-Fluoro-4′-(2-methylsulfanyl-4,5-dihydro-imidazol-1-ylmethyl)-biphenyl-4-yl]-2-oxo-oxazolidin-5-(S)-ylmethyl}-acetamide]: the MIC under setting [1] was 2 µg/mL (≈ 4.38 µM).
With `CSc1nnnn1Cc1ccc(-c2ccc(N3C[C@H](CNC(C)=O)OC3=O)cc2F)cc1` [Compound 1079, N-{3-[2-Fluoro-4′-(5-methylsulfanyl-tetrazol-1-ylmethyl)-biphenyl-4-yl]-2-oxo-oxazolidin-5-(S)-ylmethyl}-acetamide], the MIC under setting [1] was 2 µg/mL (≈ 4.38 µM).
The same measure, in the same setting: under `CSc1nnn(Cc2ccc(-c3ccc(N4C[C@H](CNC(C)=O)OC4=O)cc3F)cc2)n1` [Compound 1080, N-{3-[2-Fluoro-4′-(5-methylsulfanyl-tetrazol-2-ylmethyl)-biphenyl-4-yl]-2-oxo-oxazolidin-5-(S)-ylmethyl}-acetamide] stands 0.25 µg/mL (≈ 0.548 µM); under `CCSc1nnnn1Cc1ccc(-c2ccc(N3C[C@H](CNC(C)=O)OC3=O)cc2F)cc1` [Compound 1081, N-{3-[4′-(5-Ethylsulfanyl-tetrazol-1-ylmethyl)-2-fluoro-biphenyl-4-yl]-2-oxo-oxazolidin-5-(S)-ylmethyl}-acetamide], 2 µg/mL (≈ 4.25 µM).
As to `CCSc1nnn(Cc2ccc(-c3ccc(N4C[C@H](CNC(C)=O)OC4=O)cc3F)cc2)n1` [Compound 1082, N-{3-[4′-(5-Ethylsulfanyl-tetrazol-2-ylmethyl)-2-fluoro-biphenyl-4-yl]-2-oxo-oxazolidin-5-(S)-ylmethyl}-acetamide], the MIC under setting [1] was found to be 0.5 µg/mL (≈ 1.06 µM).
Still for that read-out and setting: under `CC(=O)NC[C@H]1CN(c2ccc(-c3ccc(Cn4nnnc4Cl)cc3)c(F)c2)C(=O)O1` [Compound 1083, N-{3-[4′-(5-Chloro-tetrazol-1-ylmethyl)-2-fluoro-biphenyl-4-yl]-2-oxo-oxazolidin-5-(S)-ylmethyl}-acetamide] stands 0.5 µg/mL (≈ 1.12 µM); under `O=C1O[C@@H](Cn2ccnn2)CN1c1ccc(-c2ccc(Cn3ccnc3)cc2)c(F)c1` [Compound 1084, 3-(2-Fluoro-4′-imidazol-1-ylmethyl-biphenyl-4-yl)-5-(R)-[1,2,3]triazol-1-ylmethyl-oxazolidin-2-one], 0.25 µg/mL (≈ 0.597 µM); under `O=C1O[C@@H](Cn2ccnn2)CN1c1ccc(-c2ccc(Cn3cccn3)cc2)c(F)c1` [Compound 1085, 3-(2-Fluoro-4′-pyrazol-1-ylmethyl-biphenyl-4-yl)-5-(R)-[1,2,3]triazol-1-ylmethyl-oxazolidin-2-one], 0.5 µg/mL (≈ 1.19 µM).
As for `CC(=O)NC[C@H]1CN(c2ccc(-c3ccc(Cc4c[nH]cn4)cc3)c(F)c2)C(=O)O1` [Compound 1086, N-{3-[2-Fluoro-4′-(1H-imidazol-4-ylmethyl)-biphenyl-4-yl]-2-oxo-oxazolidin-5-(S)-ylmethyl}-acetamide], the MIC is 0.5 µg/mL (≈ 1.22 µM).
For the compound `CC(=O)NC[C@H]1CN(c2ccc(-c3ccc(CN4CC[C@H](O)C4)cc3)c(F)c2)C(=O)O1` [Compound 1087, N-{3-[2-Fluoro-4′-(3-(S)-hydroxy-pyrrolidin-1-ylmethyl)-biphenyl-4-yl]-2-oxo-oxazolidin-5-(S)-ylmethyl}-acetamide], the MIC under setting [1] was 4 µg/mL (≈ 9.36 µM).
As to `CC(=O)NC[C@H]1CN(c2ccc(-c3ccc(CN4CC[C@@H](O)C4)cc3)c(F)c2)C(=O)O1` [Compound 1088, N-{3-[2-Fluoro-4′-(3-(R)-hydroxy-pyrrolidin-1-ylmethyl)-biphenyl-4-yl]-2-oxo-oxazolidin-5-(S)-ylmethyl}-acetamide], the MIC under setting [1] was determined as 4 µg/mL (≈ 9.36 µM).
On the same count and under the same terms, under `CC(=O)NC[C@H]1CN(c2ccc(-c3ccc(CN4CCC4)cc3)c(F)c2)C(=O)O1` [Compound 1090, N-[3-(4′-Azetidin-1-ylmethyl-2-fluoro-biphenyl-4-yl)-2-oxo-oxazolidin-5-(S)-ylmethyl]-acetamide] stands 2 µg/mL (≈ 5.03 µM).
Still for that read-out and setting: under `CC(=O)NC[C@H]1CN(c2ccc(-c3ccc(CN4CC[C@@H](N)C4)cc3)c(F)c2)C(=O)O1` [Compound 1091, N-{3-[4′-(3-(R)-Amino-pyrrolidin-1-ylmethyl)-2-fluoro-biphenyl-4-yl]-2-oxo-oxazolidin-5-(S)-ylmethyl}-acetamide] stands 2 µg/mL (≈ 4.69 µM); under `CC(=O)NC[C@H]1CN(c2ccc(-c3ccc(CN4CC[C@H](N)C4)cc3)c(F)c2)C(=O)O1` [Compound 1092, N-{3-[4′-(3-(S)-Amino-pyrrolidin-1-ylmethyl)-2-fluoro-biphenyl-4-yl]-2-oxo-oxazolidin-5-(S)-ylmethyl}-acetamide], 4 µg/mL (≈ 9.38 µM).
As to `CC(=O)NC[C@H]1CN(c2ccc(-c3ccc(CN4CCC(F)CC4)cc3)c(F)c2)C(=O)O1` [Compound 1094, N-{3-[2-Fluoro-4′-(4-fluoro-piperidin-1-ylmethyl)-biphenyl-4-yl]-2-oxo-oxazolidin-5-(S)-ylmethyl}-acetamide], under setting [1], the MIC came out at 1 µg/mL (≈ 2.25 µM).
`CC(=O)NC[C@H]1CN(c2ccc(-c3ccc(CN4CCCC(F)(F)C4)cc3)c(F)c2)C(=O)O1` [Compound 1097, N-{3-[4′-(3,3-Difluoro-piperidin-1-ylmethyl)-2-fluoro-biphenyl-4-yl]-2-oxo-oxazolidin-5-(S)-ylmethyl}-acetamide]: the MIC under setting [1] stood at 2 µg/mL (≈ 4.33 µM).
In the case of `CC(=O)NC[C@H]1CN(c2ccc(-c3ccc(Cn4cnc5c(NCCCF)ncnc54)cc3)c(F)c2)C(=O)O1` [Compound 1098, N-(3-{2-Fluoro-4′-[6-(3-fluoro-propylamino)-purin-9-ylmethyl]-biphenyl-4-yl}-2-oxo-oxazolidin-5-(S)-ylmethyl)-acetamide], the MIC under setting [1] stood at 2 µg/mL (≈ 3.73 µM).
On to `CC(=O)NC[C@H]1CN(c2ccc(-c3ccc(Cn4cnc5c(NCCO)ncnc54)cc3)c(F)c2)C(=O)O1` [Compound 1099, N-(3-{2-Fluoro-4′-[6-(2-hydroxy-ethylamino)-purin-9-ylmethyl]-biphenyl-4-yl}-2-oxo-oxazolidin-5-(S)-ylmethyl)-acetamide], for which, under setting [1], the MIC was 2 µg/mL (≈ 3.85 µM).
Consider `CC(=O)NC[C@H]1CN(c2ccc(-c3ccc(Cn4cnc5c(Cl)ncnc54)cc3)c(F)c2)C(=O)O1` [Compound 1100, N-{3-[4′-(6-Chloro-purin-9-ylmethyl)-2-fluoro-biphenyl-4-yl]-2-oxo-oxazolidin-5-(S)-ylmethyl}-acetamide], for which the MIC under setting [1] turned out to be 1 µg/mL (≈ 2.02 µM).
Take `CC(=O)NC[C@H]1CN(c2ccc(-c3ccc(CN4CCOC4=O)cc3)c(F)c2)C(=O)O1` [Compound 1101, N-{3-[2-Fluoro-4′-(2-oxo-oxazolidin-3-ylmethyl)-biphenyl-4-yl]-2-oxo-oxazolidin-5-(S)-ylmethyl}-acetamide]: under setting [1], the MIC turned out to be 0.25 µg/mL (≈ 0.585 µM).

Source of the values: US10471046B2, “Method for treating, preventing, or reducing the risk of skin infection” (Melinta Subsidiary Corp., priority 2014, dated 2019).
